These results are taken from US20100029665A1, “Methods and Compositions for Treating Migraine Pain” (priority 2004, published 2010).

Molecules are shown by their SMILES.

For series [1] the following is noted: humans; cited from earlier work.
Series [2] can be described thus: Release profile (cumulative fraction released) of a memantine and dihydroergotamine combination, USP II Paddle system, water. The series is classed as physicochemical. From the text: The cumulative fraction is the amount of drug substance released from the formulation matrix to the serum or gut environment (e.g., U.S. Pat. No. 4,839,177) or as measured with a USP II Paddle system using water as the dissolution medium.

For series [3] the following is noted: head of release table, Example 3; cited from earlier work.

`CC(N)C12CC3CC(CC(C3)C1)C2` (stereo not drawn) [Rimantadine, 1-(1-aminoethyl)adamantane]: in series [1], the “Dose Dependent Tox” value is on record as “Insomnia”.
Take `CN1C[C@H](C(=O)N[C@]2(C)O[C@@]3(O)[C@@H]4CCCN4C(=O)[C@H](Cc4ccccc4)N3C2=O)C[C@@H]2c3cccc4[nH]cc(c34)C[C@H]21` [DIHYDROERGOTAMINE, dihydroergotamine]: the cum. fraction in series [2] (Time 1) is listed as 0.15; in series [2] (Time 2), 0.30; in series [2] (Time 4), 0.45; in series [2] (Time 8), 0.60; in series [2] (Time 12) it was 0.75; in series [2] (Time 16), 0.90. For the same compound, the results for the cum. fraction in series [2] (Time 20) and in series [2] (Time 24) were 0.98 and 0.99, respectively. Moreover, the T½ entry in series [3] is “T½ = 15 hrs”.
Consider `CC12CC3CC(C)(C1)CC(N)(C3)C2` [Memantine, 1-amino-3,5-dimethyladamantane], for which the cum. fraction in series [2] (Time 1) was 0.15; in series [2] (Time 2), 0.30; in series [2] (Time 4) it was 0.45; in series [2] (Time 8), 0.60; in series [2] (Time 12) it was 0.75; in series [2] (Time 16), 0.90. The cum. fraction in series [2] (Time 20) stood at 0.98; in series [2] (Time 24), 0.99.
